Assay results taken from US20070184018A1, “Anthranilamide insecticides” (priority 2004, published 2007).

Test system: corn planthopper (Peregrinus maidis)
Assay: Test F: control of corn planthopper through contact and/or systemic means on corn (maize) plant
Type: in vivo
Conditions: sprayed at 250 ppm, nymphs, 6 days, visually assessed
Description: Test compounds were formulated using a solution containing 10% acetone, 90% water and 300 ppm X-77™ Spreader Lo-Foam Formula non-ionic surfactant containing alkylarylpolyoxyethylene, free fatty acids, glycols and isopropanol (Loveland Industries, Inc.). The formulated compounds were applied in 1 mL of liquid through a SUJ2 atomizer nozzle with ⅛ JJ custom body (Spraying Systems Co.) positioned 1.27 cm (0.5 inches) above the top of each test unit. All experimental compounds in this screen were sprayed at 250 ppm, replicated three times. After spraying of the formulated test compound, each test unit was allowed to dry for 1 hour and then a black, screened cap was placed on top. The test units were held for 6 days in a growth chamber at 19-21° C. and 50-70% relative humidity. Each test unit was then visually assessed for insect mortality.
For evaluating control of corn planthopper (Peregrinus maidis) through contact and/or systemic means, the test unit consisted of a small open container with a 3-4 day old corn (maize) plant (spike) inside. White sand was added to the top of the soil prior to application. Test compounds were formulated and sprayed at 250 ppm and replicated three times as described for Test C. […] Each test unit was then visually assessed for insect mortality.

## Cc1cc(C#N)cc(C(N)=O)c1NC(=O)c1cc(Br)nn1-c1ccccc1Cl [Compound 67]
  mortality: at least 80%
